Test results published in patent publication US11345707B2, “Atropisomerism for increased kinase inhibitor selectivity” (SAN DIEGO STATE UNIVERSITY RESEARCH FOUNDATION, priority 2015, dated 2022).

Columns and labels:
[1] = tested on: panel of tyrosine kinases; assay: Kinase inhibitor profiling across a panel of tyrosine kinases (Z′-LYTE), selectivity score; type: biochemical
Description: To analyze each analog's selectivity across the panel we turned to selectivity scores (Davis et al., Nat. Biotechnol. 2011, 29, 1046-51), simply the number of kinases inhibited above a certain threshold divided by the number of kinases evaluated. […] For example at 1000 nM 2e-(R) yielded an S(40%) of 0.11 while 2e-(S) gave an S(40%) of 0.16. […] Differences in selectivity between 2e-(R) and 2e-(S) at 5000 nM (4.5 times the IC50 of 2e-(S) toward Src) and for 5 at 1000 nM (6.25 times the IC50 of 5 toward Src) can be viewed graphically across tyrosine kinases (FIG. 3). Importantly, similar trends were also observed across each of the atropisomeric series tested.
All samples were sent out to Life Technologies to obtain kinase inhibition data. A brief description of the assays and analyses are included below.
Assay Theory (SelectScreen® Kinase Profiling Services (Life Technologies, Madison, Wis. USA). The Z′-LYTE® biochemical assay employs a fluorescence-based, coupled-enzyme format and is based on the differential sensitivity of phosphorylated and non-phosphorylated peptides to proteolytic cleavage. The peptide substrate is labeled with two fluorophores—one at each end—that make up a FRET pair.
In the primary reaction, the kinase transfers the gamma-phosphate of ATP to a single tyrosine, serine or threonine residue in a synthetic FRET-peptide. In the secondary reaction, a site-specific protease recognizes and cleaves non-phosphorylated FRET-peptides. Phosphorylation of FRET-peptides suppresses cleavage by the Development Reagent. Cleavage disrupts FRET between the donor (i.e., coumarin) and acceptor (i.e., fluorescein) fluorophores on the FRET-peptide, whereas uncleaved, phosphorylated FRET-peptides maintain FRET. A ratiometric method, which calculates the ratio (the Emission Ratio) of donor emission to acceptor emission after excitation of the donor fluorophore at 400 nm, is used to quantitate reaction progress, as shown in the equation below: […]
A significant benefit of this ratiometric method for quantitating reaction progress is the elimination of well-to-well variations in FRET-peptide concentration and signal intensities. As a result, the assay yields very high Z′-factor values (>0.7) at a low percent phosphorylation. Both cleaved and uncleaved FRET-peptides contribute to the fluorescence signals and therefore to the Emission Ratio. The extent of phosphorylation of the FRET-peptide can be calculated from the Emission Ratio. The Emission Ratio will remain low 1f the FRET-peptide is phosphorylated (i.e., no kinase inhibition) and will be high 1f the FRET-peptide is non-phosphorylated (i.e., kinase inhibition).
Both cleaved and uncleaved FRET-peptides contribute to the fluorescence signals and therefore to the Emission Ratio. The extent of phosphorylation of the FRET-peptide can be calculated from the Emission Ratio. The Emission Ratio will remain low 1f the FRET-peptide is phosphorylated (i.e., no kinase inhibition) and will be high 1f the FRET-peptide is non-phosphorylated (i.e., kinase inhibition).

[2] = Experimental measurement of the barriers to rotation (racemization followed by chiral HPLC); type: physicochemical
Description: The enantiomerically enriched analogues were then dissolved in ethanol and placed in a sealed 2-dram vial and heated under constant temperature on an aluminum block. At each time point, an aliquot of the mixture was removed and quenched in an HPLC vial containing ice cold 80:20 hexanes:ethanol. […] The timepoint and enantiomeric excess (ee) data was then plotted in order to determine an observed rate constant, kobs, at the corresponding temperature. The barrier to rotation was then calculated using the relationship of kracemization=2*kenantiomerization and then substituted into the Gibbs Free Energy Equation:
[formula] where h=Planck Constant, kb=Boltzmann Constant, T=Temp. (K), R=Gas Constant.

## COc1ccc(Cl)c(-c2c(Cl)n(C(C)(C)C)c3ncnc(N)c23)c1 (single isomer, unassigned) [2e-(R), 7-(tert-butyl)-6-chloro-5-(2-chloro-5-methoxyphenyl)-7H-pyrrolo[2,3-d]pyrimidin-4-amine]
[1]; 1000 nM
  S(40%): number of kinases inhibited greater than 40% divided by number of kinases tested (including Src): 0.11
[1]; 5000 nM
  S(40%): number of kinases inhibited greater than 40% divided by number of kinases tested (including Src): 0.44

## COc1ccc(Cl)c(-c2c(Cl)n(C(C)(C)C)c3ncnc(N)c23)c1 (single isomer, unassigned) [2e-(S), 7-(tert-butyl)-6-chloro-5-(2-chloro-5-methoxyphenyl)-7H-pyrrolo[2,3-d]pyrimidin-4-amine]
[1]; 1000 nM
  S(40%): number of kinases inhibited greater than 40% divided by number of kinases tested (including Src): 0.16
[1]; 5000 nM
  S(40%): number of kinases inhibited greater than 40% divided by number of kinases tested (including Src): 0.61

## COc1ccc(Cl)c(-c2c(Cl)n(C3CCCC3)c3ncnc(N)c23)c1 (racemic) [Compound 1e, 6-chloro-5-(2-chloro-5-methoxyphenyl)-7-cyclopentyl-7H-pyrrolo[2,3-d]pyrimidin-4-amine]
[2]
  t1/2 to Racemization at 37° C.: 18 days

## COc1cccc(-c2cn(C(C)(C)C)c3ncnc(N)c23)c1 [Compound 5, reference compound]
[1]; 200 nM
  S(40%): number of kinases inhibited greater than 40% divided by number of kinases tested (including Src): 0.44
[1]; 200 nM and 1000 nM
  activity for the tyrosine kinase panel tested: near pan activity
[1]; 1000 nM
  S(40%): number of kinases inhibited greater than 40% divided by number of kinases tested (including Src): 0.72
